Results taken from patent US10500223B2, “Therapeutic agent for myotonic dystrophy” (Osaka University, priority 2015, dated 2019).
Where “and” joins values, the source holds several entries; their conditions need not be identical. Identical values can stand only once.

Columns and labels:
[1] = tested on: skeletal muscle chloride channel (Clcn1) gene splicing; assay: Aberrant splicing of Clcn1 gene in quadriceps femoris muscle of MyD model mice, intraperitoneal erythromycin; assay type: in vivo, mouse; details: HSA^LR mice, 150 mg/kg intraperitoneal once daily for 8 days, vs physiological saline MyD group
Description: Erythromycin was intraperitoneally administered to MyD model mice, and its effects on muscle contraction in the quadriceps femoris muscle and on aberrant splicing of the skeletal muscle chloride channel (Clcn1) gene in the quadriceps femoris muscle were examined. The MyD model mice used were HSA^LR mice, which were kindly provided by Dr. Charles Thornton (University of Rochester) and bred in the laboratory animal facility of Osaka University. The HSA^LR mice are transgenic animals prepared by genomic integration of a hACTA gene (human gene constitutively expressed in myocytes) containing 3′-terminal CTG repeats expanded to 220, and manifest the symptoms of MyD upon the expression of mRNA with expanded CUG repeats in the myocytes (Science, 2000, 289 (5485), 1769-73). As a control, wild-type mice (FVB/NJcl mice, purchased from CLEA Japan) were used. Male and female mice aged 8 weeks were used for the experiment. The erythromycin used was “Erythrocin (registered trademark) for intravenous injection 500 mg (erythromycin lactobionate for injection)” (Abbott). This product was dissolved at 50 mg/mL in physiological saline before use. […] The normal PCR product and the aberrant PCR product were separately quantified with an image analyzer (Typhoon 9410, GE), and the percentage of the normal product in the total RT-PCR product was calculated. […]

[2] = tested on: Atp2a1 gene exon 22 splicing; assay: Aberrant splicing of Atp2a1 exon 22 in MyD model cells (RT-PCR); assay type: cell-based, mouse; details: C2C12-DMPK800R cells, erythromycin 25 or 50 μM, 72 hours
Method: The MyD model cells were treated with erythromycin, and whether erythromycin would correct aberrant splicing in exon 22 of the Atp2a1 gene was examined. The same MyD model cells as in Example 1 (C2C12-DMP[…]) were used. The same erythromycin as in Example 1 was used. To the medium of the MyD model cells, erythromycin was added at 0, 25 or 50 μM, and after 72 hours, the total RNA was extracted using RNeasy Mini Plus Kit (trade name, Qiagen). As a control, normal C2C12 cells were cultured in a medium without erythromycin, and the total RNA was similarly extracted. For RT-PCR, SuperScript III First-Strand Synthesis System (Invitrogen) was used to prepare cDNA, and after treatment with RNase H, the segment of interest was amplified using the Atp2a1 exon 22 RT primers shown below. The RT-PCR product was electrophoresed on a 2% agarose gel and then stained using GelRed. The normal PCR product and the aberrant PCR product were separately quantified with an image analyzer (Typhoon 9410, GE). Atp2a1 exon 22 RT primers

[3] = tested on: skeletal muscle chloride channel (Clcn1) gene splicing; assay: Aberrant splicing of Clcn1 gene in quadriceps femoris muscle of MyD model mice, high-dose oral erythromycin; assay type: in vivo, mouse; details: HSA^LR mice, 300, 600, 900 mg/kg gavage once daily for 5 days
Method: High-dose erythromycin was orally administered to MyD model mice, and its effect on aberrant splicing of the skeletal muscle chloride channel (Clcn1) gene in the quadriceps femoris muscle was examined. The same MyD model mice (HSA^LR mice) and wild-type mice as in Example 3 were used. The erythromycin used was “Erythrocin (registered trademark) dry syrup […]% (erythromycin ethylsuccinate dry syrup)” (Abbott). This product was dissolved at 100 mg/mL in purified water before use. The animals were divided into five groups: an erythromycin 300 mg/kg administration MyD group, an erythromycin 600 mg/kg administration MyD group, an erythromycin 900 mg/kg administration MyD group, a physiological saline administration MyD group and a control (wild-type mice) group (n=3 per group). The administration was gavage administration and performed once daily for five consecutive days. On the day of the final administration, the quadriceps femoris muscle was dissected from each mouse. In the same manner as in Example 3, RT-PCR was performed, the normally spliced product and the aberrantly spliced product were separately quantified, and the percentage of the normal product in the total RT-PCR product was calculated. Statistical analysis was performed using t-test.

HSA^LR mice [4] = assay: Muscle contraction (myotonia) by needle electromyography in MyD model mice, usual-dose oral erythromycin; assay type: in vivo, mouse; details: 50 mg/kg gavage once daily for 21 days, quadriceps femoris muscle, n=3
Method: Usual-dose erythromycin was orally administered to MyD model mice, and its effects on muscle contraction in the quadriceps femoris muscle and on aberrant splicing of the skeletal muscle chloride channel (Clcn1) gene in the quadriceps femoris muscle were examined. The same MyD model mice (HSA^LR mice) and wild-type mice as in Example 3 were used. As with the case in Example 4, “Erythrocin (registered trademark) dry syrup […]% (erythromycin ethylsuccinate dry syrup)” (Abbott) was dissolved at 100 mg/mL in purified water before use. The animals were divided into three groups: an erythromycin 50 mg/kg administration MyD group, a physiological saline administration MyD group and a control (wild-type mice) group (n=3 per group). The administration was gavage administration and performed once daily for 21 consecutive days. On the day of the final administration, needle electromyography was performed in the quadriceps femoris muscle in the mice under anesthesia to record myotonic discharge.

[5] = tested on: skeletal muscle chloride channel (Clcn1) gene splicing; assay: Aberrant splicing of Clcn1 gene in quadriceps femoris muscle of MyD model mice, usual-dose oral erythromycin; assay type: in vivo, mouse; details: HSA^LR mice, 50 mg/kg gavage once daily for 21 days, vs physiological saline MyD group
Method: Usual-dose erythromycin was orally administered to MyD model mice, and its effects on muscle contraction in the quadriceps femoris muscle and on aberrant splicing of the skeletal muscle chloride channel (Clcn1) gene in the quadriceps femoris muscle were examined. The same MyD model mice (HSA^LR mice) and wild-type mice as in Example 3 were used. As with the case in Example 4, “Erythrocin (registered trademark) dry syrup […]% (erythromycin ethylsuccinate dry syrup)” (Abbott) was dissolved at 100 mg/mL in purified water before use. The animals were divided into three groups: an erythromycin 50 mg/kg administration MyD group, a physiological saline administration MyD group and a control (wild-type mice) group (n=3 per group). The administration was gavage administration and performed once daily for 21 consecutive days. On the day of the final administration, the quadriceps femoris muscle was dissected from each mouse. In the same manner as in Example 3, RT-PCR was performed, and the normally spliced product and the aberrantly spliced product were separately quantified. Statistical analysis was performed using t-test.

HSA^LR mice [6] = assay: Muscle contraction (myotonia) by needle electromyography in MyD model mice, intraperitoneal erythromycin; assay type: in vivo, mouse; details: 150 mg/kg intraperitoneal once daily for 8 days, quadriceps femoris muscle, 24 h after final administration, n=3
Method: The animals were divided into three groups: an erythromycin administration MyD group, a physiological saline administration MyD group and a control (wild-type mice) group (n=3 (1 male, 2 females) per group). The dose of erythromycin was 150 mg/kg, and this dose was repeatedly administered once daily for 8 days. The physiological saline administration MyD group was repeatedly given physiological saline once daily for 8 days. Nothing was administered to the control (wild-type mice) group.
Twenty-four hours after the final administration, needle electromyography was performed in the quadriceps femoris muscle in the mice under anesthesia to record myotonic discharge. […]

C2C12-DMPK800R cells = assay: RNA foci formation in MyD model cells (FISH); assay type: cell-based, mouse; details: erythromycin 25 or 50 μM, 72 hours, vs medium without erythromycin
Method: MyD model cells were treated with erythromycin, and the number of RNA foci was measured by the FISH (fluorescence in situ hybridization) method.
The MyD cell model used was cells established by transfection of a DMPK gene containing 800 CTG repeats into C2C12 cells (C2C12-DMPK800R, Nucleic Acids Research, 2014, 42 (10), 6591-6602). The establishment of the C2C12-DMPK800 cells was performed in the following procedure. Both a plasmid (pLC16) with a DMPK gene sequence containing 800 CTG repeats in the 3′-untranslated region and a plasmid expressing PhiC31 integrase were transfected into the C2C12 mouse myoblast cell line using Nucleofector (trade name, Lonza), and stably expressing cells were selected using a selection medium with puromycin. Next, a plasmid expressing Cre recombinase was transfected into the stably expressing cells, and a clone in which the transcription of 800 CUG had been activated was selected using a selection medium with hygromycin. […]
The MyD model cells were cultured in DMEM medium supplemented with 10% FBS and penicillin/streptomycin under the conditions of 37° C. and 5% CO2. […] After mounting in Vectashield with DAPI (trade name, Vector Laboratories), the number of RNA foci in the nucleus was counted with a fluorescence microscope (Keyence PZ-9000).

`CC[C@H]1OC(=O)[C@H](C)[C@@H](O[C@H]2C[C@@](C)(OC)[C@@H](O)[C@H](C)O2)[C@H](C)[C@@H](O[C@@H]2O[C@H](C)C[C@H](N(C)C)[C@H]2O)[C@](C)(O)C[C@@H](C)C(=O)[C@H](C)[C@@H](O)[C@]1(C)O` [erythromycin, (2R,3S,4S,5R,6R,8R,10R,11R,12S,13R)-5-(3,4,6-trideoxy-3-dimethylamino-β-D-xylo-hexopyranosyloxy)-3-(2,6-dideoxy-3-C-methyl-3-O-methyl-α-L-ribo-hexopyranosyloxy)-6,11,12-trihydroxy-2,4,6,8,10,12-hexamethyl-9-oxopentadecan-13-olide] was tested, and the “percentage of the normal product in the total RT-PCR product (Clcn1 exon 7a)” value [1] was “significantly higher percentage of the normal RT-PCR product”, the “percentage of the normal product in the total RT-PCR product (Atp2a1 exon 22)” value [2] was “significantly increased the percentage of the normal product to a level observed in the normal C2C12 cells” and the “correction of aberrant splicing of the Clcn1 gene (percentage of normal product)” value [3] was “significantly corrected the aberrant splicing of the Clcn1 gene in a dose dependent manner”. For the same compound, the “severity of muscle contraction (frequency of myotonic discharge), per mouse” value (HSA^LR mice [4]) was 2 (myotonic discharge was observed in 50% or more and less than 90% of the needle insertions.) and 1 (myotonic discharge was observed in less than 50% of the needle insertions.), the “percentage of the normal RT-PCR product (Clcn1)” value [5] was “significantly higher percentage of the normal RT-PCR product” and the “severity of muscle contraction (frequency of myotonic discharge), per mouse” value (HSA^LR mice [6]) was 1 (myotonic discharge was observed in less than 50% of the needle insertions.) and no muscle contraction. The “percentage of RNA foci positive cells” value (C2C12-DMPK800R cells) was “significantly decreased the percentage of RNA foci positive cells in a dose dependent manner”.
